Reference: patent publication US20100203531A1, “PREDICTING RESPONSIVENESS TO TEMOZOLOMIDE” (priority 2007, published 2010)

Columns and labels:
Assay type in all cases: in vivo, human
[1] = tested on: GBM12 xenograft; experiment: Orthotopic intracranial xenograft survival, GBM12
Method: (§1) In vivo sensitivity of GBM lines to TMZ: To address whether MGMT methylation or polypeptide expression status are predictive of TMZ responsiveness, the effects of TMZ therapy on survival were evaluated in the panel of xenografts using an orthotopic therapy model. Mice with established intracranial xenografts were treated with 66 mg/kg TMZ or placebo daily for 5 days by oral gavage. This TMZ dosing regimen provides the equivalent dose-exposure to TMZ as the standard adjuvant TMZ dosing regimen for GBM patients of 200 mg/m^2×5 days. All mice were followed until reaching a moribund state, and the relative prolongation of survival following TMZ treatment was calculated for each line relative to placebo treatment (Table 1). […] Further analysis of the relationship between TMZ responsiveness and MGMT methylation status in 17 xenograft lines was conducted by comparing the distribution of median survival prolongation results for methylation-positive and methylation-negative groups of xenografts. From this analysis, MGMT methylation was modestly associated with increased TMZ sensitivity (FIG. 2, p=0.039, two-sample rank sum test). In a similar analysis of MGMT polypeptide expression levels, high levels of MGMT polypeptide expression were invariably associated with relative TMZ resistance, and the absence of MGMT polypeptide expression was associated with significant TMZ sensitivity (r=−0.73, p=0.005). […] While p53, PTEN and EGFR function have been linked to TMZ sensitivity in some models, no correlation between genetic alterations of these genes and TMZ responsiveness was observed.
(§2) Orthotopic model: Therapy evaluations were conducted using an orthotopic tumor model as described elsewhere (Sarkaria et al., Clin Cancer Res, 12:2264-2271 (2006), Giannini et al., Neuro-Oncology, 7:164-176, (2005)). Athymic nude mice (NCI, Frederick, Md.) with established intracranial tumors were randomized into groups of 8 to 10 mice each and treatment was initiated 2 weeks before mice were expected to become moribund. TMZ was purchased from the Mayo Clinic Pharmacy, suspended in Ora-plus (Paddock Laboratories, Minneapolis. […] Mice were observed daily and euthanized when moribund.
(§3) Statistical analysis: Survival distributions were estimated using the Kaplan-Meier method. The log rank test was used to compare survival across treatment groups. All GBM experiments were pooled and Classification and Regression Tree analysis (CART) was used to identify which CpG sites in the MS-PCR assay (CpG sites 78-82, 86-89) were predictive of overall survival in TMZ treated mice. The two-sample rank sum test was used to compare relative differences in survival relative to MGMT MS-PCR status or CpG89 methylation status. Spearman's correlation coefficient was used to assess the association of relative median survival and protein expression levels of MGMT relative to 13-actin.

[2] = tested on: GBM22 / GS22 xenograft; experiment: Orthotopic intracranial xenograft survival, GBM22 (GS22)
Method: as §1
(§4) Orthotopic model: Therapy evaluations were conducted using an orthotopic tumor model as described elsewhere (Sarkaria et al., Clin Cancer Res, 12:2264-2271 (2006), Giannini et al., Neuro-Oncology, 7:164-176, (2005)). Athymic nude mice (NCI, Frederick, Md.) with established intracranial tumors were randomized into groups of 8 to 10 mice each and treatment was initiated 2 weeks before mice were expected to become moribund. TMZ was purchased from the Mayo Clinic Pharmacy, suspended in Ora-plus (Paddock Laboratories, Minneapolis. MN), and administered by oral gavage at 66 mg/kg for 5 days. Mice were observed daily and euthanized when moribund.
as §3, with “Spearman's correlation coefficient was used to assess the association of relative median survival and protein expression levels of MGMT relative to 13-actin.” left out

[3] = tested on: GBM34 xenograft; experiment: Orthotopic intracranial xenograft survival, GBM34
Method: as §1, §4
as §3, with “Spearman's correlation coefficient was used to assess the association of relative median survival and protein expression levels of MGMT relative to 13-actin.” left out

[4] = tested on: GBM38 xenograft; experiment: Orthotopic intracranial xenograft survival, GBM38
Method: In vivo sensitivity of GBM lines to TMZ: To address whether MGMT methylation or polypeptide expression status are predictive of TMZ responsiveness, the effects of TMZ therapy on survival were evaluated in the panel of xenografts using an orthotopic therapy model. Mice with established intracranial xenografts were treated with 66 mg/kg TMZ or placebo daily for 5 days by oral gavage. This TMZ dosing regimen provides the equivalent dose-exposure to TMZ as the standard adjuvant TMZ dosing regimen for GBM patients of 200 mg/m^2×5 days. All mice were followed until reaching a moribund state, and the relative prolongation of survival following TMZ treatment was calculated for each line relative to placebo treatment (Table 1). […] Further analysis of the relationship between TMZ responsiveness and MGMT methylation status in 17 xenograft lines was conducted by comparing the distribution of median survival prolongation results for methylation-positive and methylation-negative groups of xenografts. From this analysis, MGMT methylation was modestly associated with increased TMZ sensitivity (FIG. 2, p=0.039, two-sample rank sum test). […]

[5] = tested on: GBM44 xenograft; experiment: Orthotopic intracranial xenograft survival, GBM44
Method: as §1, with “Mice with established intracranial xenografts were treated with 66 mg/kg TMZ or placebo daily for 5 days by oral gavage.” left out
as §2, §3

[6] = tested on: GBM14 cells transduced with a luciferase-expressing lentiviral construct; experiment: Salvage TMZ therapy in intracranial GBM14-luciferase tumors with bioluminescence imaging
Method: Development of resistance to TMZ during in vivo therapy: The effect of salvage TMZ therapy in recurrent tumors was studied in the GBM14 xenograft line with the assistance of bioluminescence imaging (BLI). In this study, GBM14 cells were transduced with a luciferase-expressing lentiviral construct and then used to establish intracranial tumors. Mice were randomized into three groups: a) vehicle control, b) single dose of 120 mg/kg TMZ, c) initial TMZ dose followed by a second TMZ dose at the time of tumor regrowth, as indicated by BLI (FIGS. 7A and B). […] Extrapolating to the clinic, the apparent development of TMZ resistance during the course of treatment is reminiscent of patients who experience an initial response to TMZ therapy but then develop progressive disease during latter cycles of TMZ treatment.

Cn1nnc2c(C(N)=O)ncn2c1=O [TMZ, Temozolomide]
Survival Prolongation ([1]; GBM12, median survival relative to placebo, 66 mg/kg oral for 5 days (Table 3)): 253% | Survival benefit ([1]; GBM12, prolongation of median survival relative to placebo, TMZ 66 mg/kg oral x5 days): 253% | Survival benefit ([1]; GBM12 generation 10, TMZ 120 mg/kg for 5 days, intracranial): 268% | Survival benefit ([1]; GBM12 generation 30, TMZ 66 mg/kg for 5 days, intracranial): 164% | TMZ median survival ([1]; GBM12 intracranial xenograft, nude mice, TMZ 66 mg/kg oral daily x5 days): 53 | Temozolomide median survival ([1]; GBM12 intracranial, athymic nude mice, 66 mg/kg oral gavage for 5 days (Table 3)): 53 | Survival benefit ([2]; GBM22, prolongation of median survival relative to placebo, TMZ 66 mg/kg oral x5 days): 260% | TMZ median survival ([2]; GBM22 intracranial xenograft, nude mice, TMZ 66 mg/kg oral daily x5 days): 124 | Survival Prolongation ([2]; GS22, median survival relative to placebo, 66 mg/kg oral for 5 days (Table 3)): 260% | Temozolomide median survival ([2]; GS22 intracranial, athymic nude mice, 66 mg/kg oral gavage for 5 days (Table 3)): 155 | Survival Prolongation ([3]; GBM34, median survival relative to placebo, 66 mg/kg oral for 5 days (Table 3)): 294% | Survival benefit ([3]; GBM34, prolongation of median survival relative to placebo, TMZ 66 mg/kg oral x5 days): 294% | TMZ median survival ([3]; GBM34 intracranial xenograft, nude mice, TMZ 66 mg/kg oral daily x5 days): 351 | Temozolomide median survival ([3]; GBM34 intracranial, athymic nude mice, 66 mg/kg oral gavage for 5 days (Table 3)): 351 | Survival benefit ([4]; GBM38, prolongation of median survival relative to placebo, TMZ 66 mg/kg oral x5 days): 45% | TMZ median survival ([4]; GBM38 intracranial xenograft, nude mice, TMZ 66 mg/kg oral daily x5 days): 80 | Survival Prolongation ([5]; GBM44, median survival relative to placebo, 66 mg/kg oral for 5 days (Table 3)): 60% | Survival benefit ([5]; GBM44, prolongation of median survival relative to placebo, TMZ 66 mg/kg oral x5 days): 60% | Survival benefit ([5]; GBM44 generation 5, TMZ 120 mg/kg for 5 days, intracranial): −7% | Survival benefit ([5]; GBM44 generation 12, TMZ 66 mg/kg for 5 days, intracranial): 60% | TMZ median survival ([5]; GBM44 intracranial xenograft, nude mice, TMZ 66 mg/kg oral daily x5 days): 56 | Temozolomide median survival ([5]; GBM44 intracranial, athymic nude mice, 66 mg/kg oral gavage for 5 days (Table 3)): 56 | additional survival from second TMZ dose ([6]; second TMZ dose at time of tumor regrowth/recurrence, beyond single-dose prolongation): 22 days | survival prolongation with a single TMZ dose ([6]; single dose of 120 mg/kg TMZ, relative to placebo/vehicle, intracranial GBM14-luciferase): 56 days
